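Exposure lasted 48 hours, with cells grown in 96-well plates and compounds tested at five concentrations. Here, GI50 denotes the concentration required for 50% inhibition of growth.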 Active and inactive are the calls of the source. No stated cut-off is given here; in the data, active = GI50 up to about 1.1 µM and inactive = higher.
Key:
Assay in all cases: DTP human tumour cell line panel, 48 h
ACHN = tested on: ACHN
CCRF-CEM = tested on: CCRF-CEM
RPMI-8226 = tested on: RPMI-8226
HL-60 = tested on: HL-60
SK-MEL-2 = tested on: SK-MEL-2
TK-10 = tested on: TK-10
UACC-257 = tested on: UACC-257
Malme-3M = tested on: Malme-3M
NCI-H460 = tested on: NCI-H460
SN12C = tested on: SN12C
HCT-116 = tested on: HCT-116
OVCAR-4 = tested on: OVCAR-4
HOP-92 = tested on: HOP-92
SK-MEL-5 = tested on: SK-MEL-5
U-251 = tested on: U-251
UO-31 = tested on: UO-31
Hs-578T = tested on: Hs-578T
MCF7 = tested on: MCF7
T47D = tested on: T47D

Row | SMILES | GI50 (ACHN) | GI50 (CCRF-CEM) | GI50 (RPMI-8226) | GI50 (HL-60) | GI50 (SK-MEL-2) | GI50 (TK-10) | GI50 (UACC-257) | GI50 (Malme-3M) | GI50 (NCI-H460) | GI50 (SN12C) | GI50 (HCT-116) | GI50 (OVCAR-4) | GI50 (HOP-92) | GI50 (SK-MEL-5) | GI50 (U-251) | GI50 (UO-31) | GI50 (Hs-578T) | GI50 (MCF7) | GI50 (T47D)
1 | NC1=NS(=O)(=O)N=C(N)C1=Cc1ccc([N+](=O)[O-])o1 | 16.9 µM (inactive) | 9.33 µM (inactive) | 17.1 µM (inactive) | 5.51 µM (inactive) | 16.1 µM (inactive) | 18.6 µM (inactive) | 15.5 µM (inactive) | 16 µM (inactive) | 17.9 µM (inactive) | 16.5 µM (inactive) | 15.4 µM (inactive) | 19.9 µM (inactive) | 13.8 µM (inactive) | 15.3 µM (inactive) | 50.8 µM (inactive) | 17.9 µM (inactive) | – | – | –
2 | CCN(CC)C(=S)N/N=C1\C(=O)Nc2ccccc21 | 0.42 µM (active) | 0.347 µM (active) | 0.355 µM (active) | 0.338 µM (active) | 2.65 µM (inactive) | 0.348 µM (active) | 1.64 µM (inactive) | 0.298 µM (active) | 0.406 µM (active) | 1.46 µM (inactive) | 0.386 µM (active) | 0.771 µM (active) | 2.79 µM (inactive) | 0.193 µM (active) | 1.41 µM (inactive) | – | 0.771 µM (active) | 0.397 µM (active) | –
3 | N/N=C1N=C(Cl)/C(=C/c2ccco2)N\1 | 50.4 µM (inactive) | 31.4 µM (inactive) | 16.8 µM (inactive) | 21.9 µM (inactive) | 36.2 µM (inactive) | 71.9 µM (inactive) | 52.8 µM (inactive) | 52.5 µM (inactive) | – | 67.1 µM (inactive) | 36.5 µM (inactive) | 31.6 µM (inactive) | 47.2 µM (inactive) | 34 µM (inactive) | 47.9 µM (inactive) | 43.1 µM (inactive) | 41.3 µM (inactive) | 56 µM (inactive) | 40.4 µM (inactive)
4 | CN(C)Cc1cc(C(C)(C)C)cc(C2CCCCC2)c1O | 15.5 µM (inactive) | 13.5 µM (inactive) | < 0.01 µM (active) | 18.2 µM (inactive) | 18.3 µM (inactive) | 15.5 µM (inactive) | 10.1 µM (inactive) | 2.15 µM (inactive) | 19.1 µM (inactive) | 15.7 µM (inactive) | 40.7 µM (inactive) | 12.1 µM (inactive) | – | 14.4 µM (inactive) | 14.4 µM (inactive) | 17.7 µM (inactive) | 16.6 µM (inactive) | 18.3 µM (inactive) | 3.58 µM (inactive)
5 | N#CCC12CC=CCC1=C(O)C(=O)c1ccc(O)cc12 (stereo unspecified) | > 100 µM (inactive) | > 100 µM (inactive) | > 100 µM (inactive) | > 100 µM (inactive) | > 100 µM (inactive) | > 100 µM (inactive) | > 100 µM (inactive) | > 100 µM (inactive) | > 100 µM (inactive) | > 100 µM (inactive) | > 100 µM (inactive) | 52 µM (inactive) | – | > 100 µM (inactive) | > 100 µM (inactive) | 48.6 µM (inactive) | 58.1 µM (inactive) | > 100 µM (inactive) | > 100 µM (inactive)
6 | O=C1NC(=S)NC(=O)C1=Cc1ccc2ccccc2n1 | > 100 µM (inactive) | > 100 µM (inactive) | > 100 µM (inactive) | > 100 µM (inactive) | > 100 µM (inactive) | > 100 µM (inactive) | > 100 µM (inactive) | > 100 µM (inactive) | > 100 µM (inactive) | > 100 µM (inactive) | > 100 µM (inactive) | > 100 µM (inactive) | > 100 µM (inactive) | > 100 µM (inactive) | > 100 µM (inactive) | > 100 µM (inactive) | – | – | –
7 | COc1c(F)c(F)c(C(=O)/C=C2\Nc3ccccc3NC2=O)c(F)c1F | – | > 10 µM (inactive) | > 10 µM (inactive) | > 10 µM (inactive) | – | > 10 µM (inactive) | > 10 µM (inactive) | > 10 µM (inactive) | – | > 10 µM (inactive) | – | 2.48 µM (inactive) | > 10 µM (inactive) | 8.95 µM (inactive) | – | – | – | > 10 µM (inactive) | 4.67 µM (inactive)
8 | CC(/C=C/NNC1=NN=C(c2ccccc2)C(c2ccccc2)N1)Sc1ccccc1N (stereo unspecified) | 10.4 µM (inactive) | 2.46 µM (inactive) | 3.64 µM (inactive) | 2.36 µM (inactive) | 7.29 µM (inactive) | 14.2 µM (inactive) | 7.06 µM (inactive) | 7.05 µM (inactive) | 9.98 µM (inactive) | 5.79 µM (inactive) | 6.14 µM (inactive) | 6.21 µM (inactive) | 8.39 µM (inactive) | 9.66 µM (inactive) | 2.34 µM (inactive) | 6.53 µM (inactive) | – | – | –
9 | Clc1cc(Cl)ncn1 | > 100 µM (inactive) | > 100 µM (inactive) | 40.9 µM (inactive) | – | – | > 100 µM (inactive) | – | > 100 µM (inactive) | > 100 µM (inactive) | > 100 µM (inactive) | > 100 µM (inactive) | > 100 µM (inactive) | > 100 µM (inactive) | > 100 µM (inactive) | > 100 µM (inactive) | > 100 µM (inactive) | > 100 µM (inactive) | > 100 µM (inactive) | > 100 µM (inactive)
10 | CN(C)CC1CC/C(=C\c2ccc(Cl)cc2)C1=O (stereo unspecified) | 12.6 µM (inactive) | 0.611 µM (active) | 0.441 µM (active) | 0.757 µM (active) | 12 µM (inactive) | 9.86 µM (inactive) | 8.17 µM (inactive) | 7.11 µM (inactive) | 17.4 µM (inactive) | 7.67 µM (inactive) | 3.31 µM (inactive) | 15.1 µM (inactive) | 7.73 µM (inactive) | 11.9 µM (inactive) | 7 µM (inactive) | 16.6 µM (inactive) | – | 1.87 µM (inactive) | –
11 | CCOC(=O)c1csc(CCCCCCc2nc(C(=O)OCC)cs2)n1 | > 84.9 µM (inactive) | > 42.3 µM (inactive) | > 48.8 µM (inactive) | > 48.3 µM (inactive) | 97.5 µM (inactive) | > 92.5 µM (inactive) | 34.8 µM (inactive) | > 74.5 µM (inactive) | 29.7 µM (inactive) | > 82.6 µM (inactive) | 35.9 µM (inactive) | > 100 µM (inactive) | > 58.2 µM (inactive) | 41.6 µM (inactive) | 24 µM (inactive) | > 100 µM (inactive) | – | – | –
12 | C1CN(P2(N3CC3)=NP(N3CC3)(N3CC3)=NP(N3CC3)(N3CC3)=N2)CCO1 (stereo unspecified) [FOTRETAMINE] | 37.5 µM (inactive) | 23 µM (inactive) | > 95.7 µM (inactive) | 36.6 µM (inactive) | > 100 µM (inactive) | > 100 µM (inactive) | 83.8 µM (inactive) | > 100 µM (inactive) | 4.57 µM (inactive) | > 68.2 µM (inactive) | > 100 µM (inactive) | > 100 µM (inactive) | > 100 µM (inactive) | > 100 µM (inactive) | 71.6 µM (inactive) | > 100 µM (inactive) | – | – | –
